From US8338624B2, “Isoflavone derivatives and uses thereof” (Yeda Research and Development Co., Ltd., priority 2007, dated 2012)
Residues, ends and D or L forms follow the SMILES beside them. *: point of attachment. Cbz = O=C(OCc1ccccc1)*; CH2F = FC*

Tests used:
[1] = test system: H295R adrenocarcinoma cells; assay: DNA synthesis by [3H]-thymidine incorporation, H295R cells; format: cell-based, human; set-up: stimulation of DNA synthesis: concentration or dose not given beside the values; conditions: for inhibition at 3 µM: Homo sapiens, NCI-H295R, read-out: inhibition of DNA synthesis / growth
Protocol: (§1) Cells were cultured in MEM supplemented with 10% FCS and antibiotics. Cells were grown to subconfluence and then treated with various hormones or agents as described by Somjen et al. (Somjen et al., 1998). The cells were characterized in terms of expression of mRNAs for estrogen […] by real time PCR, and the results are summarized in Table 1. N87, 320DM and H295R cells expressed mRNAs for both ERs. The ratio of ERα to ERβ was 1:8.5, 1:30 and 1:1.8 in N87, 320DM and H295R cells, respectively. Ovarian A2780 and prostate C4-24 cells expressed mainly mRNA for ERβ, and the ratio of ERβ to ERα was 300:1 and 70:1, respectively. MLS ovarian cells expressed mRNA only for ERβ. The ratio of ERα to ERβ in T47D cells has been reported to be 9:1.
(§2) [^3H]-Thymidine incorporation into DNA was used for the assessment of the various effects (proliferative or inhibitory) of various isoflavones, isoflavone derivatives and known cytotoxic drugs in the above-mentioned cells. Cells were grown until subconfluence using conditions described in Somjen et al. (Somjen et al., 1998) and then treated with various agents for 24 or 48 h as indicated. At the end of incubation, [^3H]-thymidine was added for two hours. Cells were then treated with 10% ice-cold trichloroacetic (TCA) for 5 min and washed twice with 5% TCA and then with cold ethanol. The cellular layer was dissolved in 0.3 ml of 0.3 M NaOH, aliquots were taken for counting radioactivity, and [^3H]-thymidine incorporation into DNA was calculated.

[2] = test system: human prostate C4-2B cancer cells; assay: DNA synthesis by [3H]-thymidine incorporation, C4-2B cells; format: cell-based
Protocol: as §1, §2

[3] = test system: T47D mammary cancer cells; assay: DNA synthesis by [3H]-thymidine incorporation, T47D cells; format: cell-based, human; conditions: at 10 μM
Protocol: as §1, §2

[4] = test system: N87 gastric carcinoma cells; assay: DNA synthesis by [3H]-thymidine incorporation, N87 cells; format: cell-based, human
Protocol: as §1, §2

[5] = test system: Human umbilical vascular smooth muscle cells (VSMC); assay: DNA synthesis by [3H]-thymidine incorporation, normal VSMC; format: cell-based; conditions: for effect on DNA synthesis: at 300 nM
Protocol: Human umbilical vascular smooth muscle cells (VSMC) sensitive to estrogen, were grown in culture as described above, and used only at passages 1-3, when expression of smooth muscle actin was clearly demonstrable (Somjen et al. 2000). The ratio of the expression of mRNA for ERα to ERβ was 2.7:1.
as §2

[6] = test system: 320DM human colon cancer cells; assay: DNA synthesis by [3H]-thymidine incorporation, 320DM cells; format: cell-based; conditions: for effect on DNA synthesis / growth: 30 to 3000 nM
Protocol: as §1
as §2, with “(Somjen et al., 1998) and then treated with various agents for 24 or 48 h as indicated.” left out

[7] = test system: MLS ovarian cancer cells; assay: DNA synthesis by [3H]-thymidine incorporation, MLS cells; format: cell-based, human
Protocol: as §1, §2

[8] = test system: MLS ovarian xenografts; assay: MLS ovarian xenografts in nude mice; format: in vivo; conditions: daunomycin iv 200 μg/mouse every other day
Excerpt: Female CD1 nude mice (8-week old, ˜30 g) were housed and handled with free access to food and water in the animal facility according to the guidelines (1996) of the Institutional Animal Care and Use Committee of the Weizmann Institute of Science, Rehovot, Israel.
Thirty female nude mice (8 weeks old) were inoculated sub-cutaneously (sc) with MLS ovarian carcinoma cells (1.5×10^6/mouse). Ten days later, when the tumors were palpable, the mice were randomly divided into 3 groups (8-10 mice/group). The mice in each group were iv injected every other day either with a vehicle (Neowater, a solubilization enhancer, 0.1 ml), daunomycin dissolved in Neowater (200 μg/mouse in 0.1 ml vehicle, total dose during treatment 1 mg/mouse), or compound 9 dissolved in Neowater (400 μg/mouse in 0.1 ml vehicle, total dose during treatment 2 mg/mouse). During treatment, body weight was recorded to monitor toxicity of the treatment, and the tumors were measured with an external caliper. Tumor volume was calculated using the formula length×width×height×π/6. Statistical significance was assessed using student's t test, and differences were considered significant at p<0.05.

[9] = test system: ERβ compared to ERα; conditions: transfected cells; cited from earlier work
[10] = test system: A2780 ovarian cancer cells; assay: DNA synthesis by [3H]-thymidine incorporation, A2780 cells; format: cell-based, human; conditions: for inhibition at 25 µM: read-out: inhibition of cell proliferation
Protocol: as §1, §2

[11] = apoptosis inhibitor at 25 μM alone
[12] = ICI 182780 (1.1 μM) + E2 0.3 μM
[13] = estradiol 30 nM + 1.1 μM ICI 182780

SMILES: COc1ccc(-c2coc3cc(O)cc(O)c3c2=O)cc1 [Compound 1, Biochanin A, reference compound]
- effect on DNA synthesis ([1]; at 3 μM): had no effect on DNA synthesis
- effect on DNA synthesis ([2]; at 3 μM): stimulated DNA synthesis significantly
- effect on DNA synthesis [3]: stimulated DNA synthesis
- effect on DNA synthesis ([4]; at 3 μM): had no effect
- effect on DNA synthesis [5]: stimulated DNA synthesis
- effect on DNA synthesis / growth [6]: had no effect on growth

SMILES: O=C(O)CCCc1oc2cc(O)cc(O)c2c(=O)c1-c1ccc(O)cc1 [Compound 5, 2-(3-Carboxypropyl)-5,7,4′-trihydroxyisoflavone]
- effect on DNA synthesis ([2]; at 300 nM): stimulated DNA synthesis
- effect on DNA synthesis / growth [6]: significantly stimulated [^3H]-thymidine incorporation into DNA

SMILES: COC(=O)C[C@H](NC(=O)[C@H](C)NC(=O)[C@@H](NC(=O)OCc1ccccc1)C(C)C)C(=O)CF [Z-VADFK, Z-VAD-FMK Me ester, reference compound] (Cbz-Val-Ala-Asp(OMe)-CH2F)
- DNA synthesis, ratio experimental/control (E/C) ([7]; Z-VADFK 25 μM alone): 1.06 ± 0.1
- effect on DNA synthesis [7, 11]: had no effect on DNA synthesis
- DNA synthesis, ratio experimental/control (E/C) ([6]; Z-VADFK 25 μM alone): 1.11 ± 0.08
- effect on DNA synthesis [6, 11]: had no effect on DNA synthesis

SMILES: C[C@]12CC[C@@H]3c4ccc(O)cc4C[C@@H](CCCCCCCCC[S+]([O-])CCCC(F)(F)C(F)(F)F)[C@H]3[C@@H]1CC[C@@H]2O (stereo partly shown) [ICI 182780, reference compound]
- DNA synthesis, ratio experimental/control (E/C) ([7]; ICI 182780 1.1 μM alone): 0.52 ± 0.12
- DNA synthesis, ratio experimental/control (E/C) ([7]; ICI 182780 (1.1 μM) + E2 30 nM): 0.53 ± 0.11
- DNA synthesis, ratio experimental/control (E/C) [7, 12]: 0.95 ± 0.08
- DNA synthesis (% of control) [7, 13]: 53%
- DNA synthesis (% of control) ([7]; estradiol 0.3 μM + 1.1 μM ICI 182780): 95%
- DNA synthesis, ratio experimental/control (E/C) ([6]; ICI 182780 1.1 μM alone): 0.63 ± 0.08
- DNA synthesis, ratio experimental/control (E/C) ([6]; ICI 182780 (1.1 μM) + E2 30 nM): 0.63 ± 0.08
- DNA synthesis, ratio experimental/control (E/C) [6, 12]: 0.92 ± 0.18
- DNA synthesis (% of control) [6, 13]: 63%
- DNA synthesis (% of control) ([6]; estradiol 300 nM + 1.1 μM ICI 182780): 92%

SMILES: COc1cccc2c1C(=O)c1c(O)c3c(c(O)c1C2=O)C[C@@](O)(C(C)=O)C[C@@H]3O[C@H]1C[C@H](N)[C@H](O)[C@H](C)O1 [daunomycin, reference compound]
- inhibition at 3 µM ([1]; at 3 μM): 75%
- reduction in mean body weight [8]: 15%
- deaths caused ([8]; 8-10 mice/group): 2 mice

SMILES: O=c1c(-c2ccc(O)cc2)coc2cc(O)cc(O)c12 [Compound 2, Genistein, reference compound]
- sensitivity for activating transcription via ERβ compared to ERα [9]: 100 fold
- effect on DNA synthesis ([2]; at 3 μM): stimulated DNA synthesis significantly
- inhibition at 25 µM ([10]; Homo sapiens): 30 to 40%
- effect on [3H]-thymidine incorporation into DNA ([6]; 30 to 300 nM): significantly stimulated [^3H]-thymidine incorporation into DNA

SMILES: COc1ccc(-c2c(CCCC(=O)O)oc3cc(O)cc(O)c3c2=O)cc1 [Compound 4, 2-(3-carboxypropyl)-7,5-dihydroxy-4′-methoxyisoflavone]
- stimulation of DNA synthesis ([1]; concentration not given): 273%
- effect on DNA synthesis ([2]; at 300 nM): stimulated DNA synthesis
- effect on DNA synthesis [3]: had no effect
- stimulation of DNA synthesis ([4]; at 300 nM): 50%
- effect on DNA synthesis [5]: stimulated DNA synthesis
- effect on DNA synthesis / growth [6]: stimulated the DNA synthesis

SMILES: N.N.O=C([O-])C1(C(=O)[O-])CCC1.[Pt+2] [carboplatin, reference compound]
- inhibition of DNA synthesis / growth ([10]; at 3 μM): 57%

SMILES: O=c1c(-c2ccc(O)cc2)coc2cc(O)ccc12 [Compound 3, Daidzein, reference compound]
- sensitivity for activating transcription via ERβ compared to ERα [9]: 100 fold
- effect on DNA synthesis ([2]; at 3 μM): stimulated DNA synthesis significantly
- effect on DNA synthesis [3]: stimulated DNA synthesis
- effect on DNA synthesis [5]: stimulated DNA synthesis
- inhibition at 25 µM ([10]; Homo sapiens): 30 to 40%

SMILES: COc1ccc(-c2c(CCCC(=O)NCCCCCCNC(=O)OC(C)(C)C)oc3cc(O)cc(O)c3c2=O)cc1 [Compound 7, 2-[3-carboxy-(6-tert-butoxycarbonylamino)-hexylamino-propyl]-7,5-dihydroxy-4′-methoxyisoflavone]
- inhibition at 3 µM ([1]; at 3 μM): 40 to 45%
- DNA synthesis, ratio experimental/control (E/C) ([1]; compound at 3 μM): 0.55 ± 0.03
- inhibition at 0.03 µM ([2]; Homo sapiens, at 30 nM): 10%
- inhibition at 0.3 µM ([2]; Homo sapiens, at 300 nM): 50%
- DNA synthesis, ratio experimental/control (E/C) ([2]; compound at 0.3 μM): 0.41 ± 0.27
- DNA synthesis, ratio experimental/control (E/C) ([7]; compound at 3 μM): 0.05 ± 0.23
- inhibition at 0.3 µM ([4]; Homo sapiens, at 300 nM, read-out: inhibition of cell growth): 40%
- inhibition at 3.3 µM ([5]; Homo sapiens, at 3.3 μM): 26%
- DNA synthesis, ratio experimental/control (E/C) ([5]; compound at 3 μM): 0.74 ± 0.05
- inhibition at 3 µM ([10]; Homo sapiens, at 3 μM, read-out: inhibition of DNA synthesis / growth): 35%
- DNA synthesis, ratio experimental/control (E/C) ([10]; compound at 3 μM): 0.64 ± 0.16
- effect on DNA synthesis / growth [6]: inhibited significantly DNA synthesis
- DNA synthesis, ratio experimental/control (E/C) ([6]; compound at 3 μM): 0.22 ± 0.15

SMILES: O=C(O)COc1ccc2c(=O)c(-c3ccc(O)cc3)coc2c1 [Compound 6, 7-(O)-Carboxymethyl daidzein, reference compound]
- effect on DNA synthesis ([2]; at 300 nM): stimulated DNA synthesis
- effect on DNA synthesis [3]: stimulated DNA synthesis
- effect on DNA synthesis [5]: stimulated DNA synthesis

SMILES: C[C@]12CC[C@@H]3c4ccc(O)cc4CC[C@H]3[C@@H]1CC[C@@H]2O [Compound E2, estradiol 17β, reference compound]
- DNA synthesis, ratio experimental/control (E/C) ([1]; E2 at 30 nM): 2.10 + .10
- DNA synthesis, ratio experimental/control (E/C) ([2]; E2 at 30 nM): 2.10 ± 0.10
- DNA synthesis, ratio experimental/control (E/C) ([7]; E2 30 nM alone (Table 3)): 2.35 ± 0.06
- DNA synthesis, ratio experimental/control (E/C) ([7]; E2 0.3 μM alone): 1.70 ± 0.15
- DNA synthesis, ratio experimental/control (E/C) ([7]; E2 at 30 nM (Table 2)): 1.39 ± 0.03
- activity at 0.03 µM ([7]; Homo sapiens, estradiol 30 nM, read-out: DNA synthesis (% of control)): 235%
- activity at 0.3 µM ([7]; Homo sapiens, estradiol 0.3 μM, read-out: DNA synthesis (% of control)): 187%
- DNA synthesis, ratio experimental/control (E/C) ([5]; E2 at 30 nM): 0.55 ± 0.12
- DNA synthesis, ratio experimental/control (E/C) ([10]; E2 at 30 nM): 1.42 ± 0.10
- DNA synthesis, ratio experimental/control (E/C) ([6]; E2 30 nM alone (Table 3)): 2.06 ± 0.09
- DNA synthesis, ratio experimental/control (E/C) ([6]; E2 0.3 μM alone): 1.87 ± 0.18
- DNA synthesis, ratio experimental/control (E/C) ([6]; E2 at 30 nM (Table 2)): 1.64 ± 0.13
- activity at 0.03 µM ([6]; Homo sapiens, estradiol 30 nM, read-out: [3H]-thymidine incorporation (% of control)): 206%
